Results published in patent US12239686B2, “Immune checkpoint inhibitor combinations” (LYTIX BIOPHARMA AS, priority 2014, dated 2025).
Non-standard residues stand in square brackets, D forms with d. Residues, ends and D or L forms follow the SMILES beside them. Dip = N[C@H](C(=O)O)C(c1ccccc1)c1ccccc1

Key:
[1] = test system: murine A20 B cell lymphoma cells; assay: Re-challenge with A20 cells in mice with complete tumour regression; format: in vivo
Description: (§1) Methods: Female Balb-c mice (n=4), previously treated with LTX-315, 1 mg) or (n=9); previously treated with LTX-315 0.5 or 1 mg) were re-inoculated (s.c. in the abdominal area) with either murine A20 B cell lymphoma cells or CT26WT colon carcinoma cells (5 million) respectively 6 weeks following initial treatment with LTX-315. Tumour growth was monitored for up to 36 days following re-inoculation.

[2] = test system: CT26WT colon carcinoma cells; assay: Re-challenge with CT26WT cells in mice with complete tumour regression; format: in vivo
Description: as §1

A375 cells [3] = assay: Release of ATP, luciferase assay of supernatant; format: cell-based, human; conditions: concentration-dependent
Description: The supernatant of LTX-315-treated A375 cells was analyzed using an Enliten ATP luciferase assay kit (Promega, USA). Cells were then seeded as with an ROS assay, and treated with LTX-315 in different incubation times, from 1 to 15 minutes with two parallels, which was then conducted three times. Negative controls were untreated A375 cells exposed to serum-free media alone. Samples were diluted at 1:50 and 1:100, and analyzed with a Luminoscan RT luminometer according to the manufacturer's protocol.

K5627/Gleevec = format: cell-based, human; conditions: resistant
Description: Tumor cells were grown as adherent monolayers or as suspensions at 37° C. in a humidified atmosphere (5% CO2, 95% air). The culture medium was RPMI 1640 containing 2 mM L-glutamine (Lonza, Belgium) and supplemented with 10% fetal bovine serum (FBS, Lonza). For experimental use, the adherent cells were detached from the culture flask by a 5-minute treatment with trypsin-versene (Lonza), diluted in Hanks' medium without calcium or magnesium (Lonza) and neutralized by addition of complete culture medium. Cells were counted in a hemocytometer and their viability was assessed by 0.25% trypan blue exclusion. […]
Three independent experiments were performed, each concentration being tested in quadruplicate. […] At the end of treatments, the cytotoxic activity was evaluated by a MTS assay (see § 3.3). […]
At the end of the cells treatment, 40 μl of a 0.22 μm filtered freshly combined solution of MTS (20 ml at 2 mg/ml, Ref G1111, Batch 235897, Exp 03/2009, Promega, Charbonnières, France) and PMS (1 ml at 0.92 mg/ml, Ref P9625, Batch 065K0961, Sigma) in Dulbecco's Phosphate Buffered Saline (DPBS, Ref 17-513Q, Batch 6MB0152, Cambrex), were added in each well. […] Absorbency (OD) were measured at 490 nm in each well using VICTOR^3TM 1420 multilabeled counter (Wallac, PerkinElmer, Courtaboeuf, France). […]

A375 cells [4] = assay: Confocal microscopy, fluorescence-labeled peptide internalization; format: cell-based, human; conditions: 1.5 and 3 μM
Description: Fixed cells, fluorescence-labeled peptide-Subconfluential A375 cells were seeded at 8,000 cells/well as above, and transfected on the second day using the Lipofectamine LTX with Plus transfection reagents (Invitrogen) following the manufacturer's protocol. The mitochondria were labeled using the pDsRed2-Mito, and the nucleus was labeled using the GFP-Histon2B plasmid (Imaging Platform, University of Tromsø). A day after transfection, cells were washed twice with serum-free RPMI, and treated at different concentration and incubation periods with LTX-315 Pacific Blue or LTX-328 Pacific Blue.
Control cells were treated with unlabeled LTX-315 and also with serum-free RPMI only. After incubation, cells were fixed with 4% paraformaldehyde in PBS, and the wells were covered with Prolong Gold antifade (Invitrogen). Cells were further analyzed by use of a Leica TCS SP5 confocal microscope, with a […] objective. Pacific Blue, GFP and Ds Red were excited using UV, with 488 and 561 lasers, and fluorescence channels were sequentially detected using the following band passes: UV: 420-480 nm (with attenuation), 488: 501-550 nm and 561: 576-676 nm.

[5] = test system: murine A20 B-cell lymphoma; assay: Murine A20 B-cell lymphoma tumours in mice, intratumoural treatment; format: in vivo; conditions: for Mean tumour size (mm^2) at day 1: prior to start of treatment
Description: The administration took place by intratumoural injection of LTX-315 dissolved in sterile saline.
The mice were divided into four groups (see Table 8 below for details). The intratumoural treatment was initiated when the tumours had reached the desired size of approximately 5 mm in diameter (minimum of 20 mm^2).
Three dose levels of LTX-315, 1 mg (Group 1), 0.5 mg (Group 2) and 0.25 mg (Group 3) per injection, were investigated. The volume was 50 μl for all injections. LTX-315 was dissolved in sterile 0.9% NaCl water solution. This vehicle was used as control (Group 4). All four groups received three injections.
A calliper was used for tumour size measurements and weighing and physical examination were used as health control.

[6] = Group 1, 1 mg intratumoural days 1,2,3
[7] = Group 2, 0.5 mg intratumoural days 1,2,3
[8] = Group 3, 0.25 mg intratumoural days 1,2,3

SMILES: NCCCC[C@H](NC(=O)[C@@H](NC(=O)[C@H](Cc1c[nH]c2ccccc12)NC(=O)[C@H](CCCCN)NC(=O)[C@H](CCCCN)NC(=O)[C@H](Cc1c[nH]c2ccccc12)NC(=O)[C@H](Cc1c[nH]c2ccccc12)NC(=O)[C@H](CCCCN)NC(=O)[C@@H](N)CCCCN)C(c1ccccc1)c1ccccc1)C(N)=O [LTX-315, K-K-W-W-K-K-W-Dip-K-NH2] (H-KKWWKKW[Dip]K-NH2)
- tumour growth after re-inoculation compared with control animals ([1]; 4 mice previously treated with LTX-315 1 mg, re-inoculated 6 weeks later, P<0.006): Significant inhibition
- mice with complete tumour regression after re-inoculation ([1]; of 4 re-inoculated mice): 3 mice
- animals with relapse after re-inoculation ([1]; of 4 re-inoculated mice, 3 weeks later): 1 animal
- tumour growth after re-inoculation in comparison with control animals ([2]; 9 mice previously treated with LTX-315 0.5 or 1 mg, P<0.01): inhibition (P<0.01) of tumour growth was observed
- animals with complete regression after re-inoculation ([2]; of 9 re-inoculated mice): 2 animals
- mice in which inhibition was observed after re-inoculation ([2]; of 9 re-inoculated mice): 7 mice
- extracellular ATP release (A375 cells [3]): ATP was detected in the supernatant as early as after 5 minutes of treatment
- IC50 (K5627/Gleevec): 2.98 µM
- internalization of Pacific Blue-labeled peptide (A375 cells [4]): showed an accumulation around the mitochondria after 30 minutes of incubation but was not detected in the cell nucleus
- Mean tumour size (mm^2) on day 4 [5, 6]: 0 mm^2
- Mean tumour size (mm^2) on day 9 [5, 6]: 3.70 ± 2.40 mm^2
- Mean tumour size (mm^2) on day 14 [5, 6]: 12.43 ± 7.87 mm^2
- Mean tumour size (mm^2) at day 1 [5, 6]: 25.82 ± 0.80 mm^2
- Relapse of Tumour ([5]; Group 1, 1 mg x3): 25%
- Free of Tumour at end of Follow-Up ([5]; Group 1, 1 mg x3, n=7): 42.8%
- Tumour Response: complete response ([5]; Group 1, 1 mg x3, n=7): 57.2%
- Tumour Response: partial response ([5]; Group 1, 1 mg x3, n=7): 42.8%
- treated mice with a complete tumour response ([5]; Group 1, optimal dose 1 mg x3): 3 of 7
- Mean tumour size (mm^2) on day 4 [5, 7]: 0 mm^2
- Mean tumour size (mm^2) on day 9 [5, 7]: 11.41 ± 4.69 mm^2
- Mean tumour size (mm^2) on day 14 [5, 7]: 61.08 ± 23.84 mm^2
- Mean tumour size (mm^2) at day 1 [5, 7]: 22.03 ± 0.63 mm^2
- Relapse of Tumour ([5]; Group 2, 0.5 mg x3): 0%
- Free of Tumour at end of Follow-Up ([5]; Group 2, 0.5 mg x3, n=7): 28.57%
- Tumour Response: complete response ([5]; Group 2, 0.5 mg x3, n=7): 28.57%
- Mean tumour size (mm^2) on day 4 [5, 8]: 20.60 ± 5.71 mm^2
- Mean tumour size (mm^2) on day 9 [5, 8]: 68.49 ± 12.74 mm^2
- Mean tumour size (mm^2) on day 14 [5, 8]: 69.42 ± 17.70 mm^2
- Mean tumour size (mm^2) at day 1 [5, 8]: 21.25 ± 0.64 mm^2
- Tumour Response: complete response ([5]; Group 3, 0.25 mg x3, n=9): 0%
- adverse events or toxic effects ([5]; all LTX-315 groups, apart from wound formation): no other adverse events or toxic effects were observed
